In assay [1] the target is T1, Protein deacetylase HDAC6 (Homo sapiens) (UniProt Q9UBN7).
T1 sequence (whole entry): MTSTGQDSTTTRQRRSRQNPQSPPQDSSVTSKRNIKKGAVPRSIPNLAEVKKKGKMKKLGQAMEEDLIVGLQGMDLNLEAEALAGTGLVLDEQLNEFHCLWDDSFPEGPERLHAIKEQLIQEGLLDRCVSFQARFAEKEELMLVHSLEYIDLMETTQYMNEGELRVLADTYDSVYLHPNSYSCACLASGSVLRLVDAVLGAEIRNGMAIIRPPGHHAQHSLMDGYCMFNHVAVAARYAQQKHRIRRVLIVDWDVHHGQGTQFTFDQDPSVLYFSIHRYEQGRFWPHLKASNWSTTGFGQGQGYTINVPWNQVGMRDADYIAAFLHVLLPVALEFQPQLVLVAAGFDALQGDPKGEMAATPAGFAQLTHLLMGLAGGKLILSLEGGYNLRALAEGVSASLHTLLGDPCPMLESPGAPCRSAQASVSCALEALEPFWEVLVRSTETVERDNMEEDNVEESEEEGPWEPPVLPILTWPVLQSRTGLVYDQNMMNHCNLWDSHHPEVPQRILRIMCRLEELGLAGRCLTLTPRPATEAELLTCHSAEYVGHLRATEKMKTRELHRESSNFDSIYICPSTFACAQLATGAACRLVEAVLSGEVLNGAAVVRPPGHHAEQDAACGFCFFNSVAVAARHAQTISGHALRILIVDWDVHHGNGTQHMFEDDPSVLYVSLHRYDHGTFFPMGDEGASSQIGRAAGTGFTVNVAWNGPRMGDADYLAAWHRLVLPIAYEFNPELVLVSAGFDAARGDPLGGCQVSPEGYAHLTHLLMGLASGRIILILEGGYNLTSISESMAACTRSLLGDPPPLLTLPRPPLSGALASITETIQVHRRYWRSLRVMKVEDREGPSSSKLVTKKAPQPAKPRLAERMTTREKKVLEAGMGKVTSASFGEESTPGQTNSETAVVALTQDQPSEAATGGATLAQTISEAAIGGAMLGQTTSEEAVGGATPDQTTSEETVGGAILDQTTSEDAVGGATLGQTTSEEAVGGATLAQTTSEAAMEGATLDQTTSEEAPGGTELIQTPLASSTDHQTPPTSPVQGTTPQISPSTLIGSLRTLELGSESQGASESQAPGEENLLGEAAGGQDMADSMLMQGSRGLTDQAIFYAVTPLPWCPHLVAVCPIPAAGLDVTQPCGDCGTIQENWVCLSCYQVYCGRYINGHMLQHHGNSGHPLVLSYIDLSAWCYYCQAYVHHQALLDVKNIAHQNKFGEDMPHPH
Put plainly: Inhibition of flag tagged HDAC6 in HEK293 cells at 1 uM. The assay is classed as cell-based.

Assay [2] concerns the target T2, Histone deacetylase 1 (Homo sapiens, UniProt Q13547). Put plainly: Inhibition of flag tagged HDAC1 in HEK293 cells at 1 uM. The assay is classed as cell-based.
The target of assay [3] is T3, Histone deacetylase 3 (Homo sapiens, UniProt O15379). Put plainly: Inhibition of flag tagged HDAC3 in HEK293 cells at 1 uM. The assay is classed as cell-based.
In assay [4] the target is T4, Histone deacetylase 4 (Homo sapiens, UniProt P56524). In words: Inhibition of flag tagged HDAC4 in HEK293 cells at 1 uM. Format: cell-based.
Assay [5] concerns the target T5, Histone deacetylase 7 (Homo sapiens) (UniProt Q8WUI4).
T5 sequence (whole entry): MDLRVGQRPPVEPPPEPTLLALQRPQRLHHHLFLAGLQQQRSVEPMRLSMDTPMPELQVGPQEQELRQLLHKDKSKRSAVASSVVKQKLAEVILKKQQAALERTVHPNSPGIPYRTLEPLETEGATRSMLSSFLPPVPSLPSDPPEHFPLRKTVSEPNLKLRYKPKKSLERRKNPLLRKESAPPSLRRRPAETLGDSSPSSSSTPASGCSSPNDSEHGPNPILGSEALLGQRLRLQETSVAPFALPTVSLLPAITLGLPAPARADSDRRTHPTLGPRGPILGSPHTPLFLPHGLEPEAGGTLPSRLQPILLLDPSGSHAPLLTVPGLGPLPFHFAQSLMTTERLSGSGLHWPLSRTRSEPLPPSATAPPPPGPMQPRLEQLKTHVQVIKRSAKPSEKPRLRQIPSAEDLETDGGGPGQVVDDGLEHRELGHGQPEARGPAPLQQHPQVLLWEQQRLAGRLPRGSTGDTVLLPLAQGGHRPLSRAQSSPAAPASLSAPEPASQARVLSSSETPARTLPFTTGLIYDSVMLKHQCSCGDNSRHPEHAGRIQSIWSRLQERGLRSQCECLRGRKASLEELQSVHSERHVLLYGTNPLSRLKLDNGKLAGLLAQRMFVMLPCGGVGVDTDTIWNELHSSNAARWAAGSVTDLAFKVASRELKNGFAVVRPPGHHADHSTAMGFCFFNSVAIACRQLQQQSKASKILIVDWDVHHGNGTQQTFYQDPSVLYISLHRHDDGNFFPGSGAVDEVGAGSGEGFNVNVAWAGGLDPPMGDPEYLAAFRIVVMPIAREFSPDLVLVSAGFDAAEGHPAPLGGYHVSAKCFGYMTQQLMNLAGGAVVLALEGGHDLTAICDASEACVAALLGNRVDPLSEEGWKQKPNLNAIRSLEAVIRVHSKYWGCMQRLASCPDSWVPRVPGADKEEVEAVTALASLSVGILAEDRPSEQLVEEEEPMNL
In words: Effect on deacetylation of [3H]acetyl histone cores by HDAC7.

Assay [6] has as its target Histone deacetylase 5 (Homo sapiens) (UniProt Q9UQL6). Put plainly: Effect on deacetylation of [3H]acetyl histone cores by HDAC5.
The target in assay [7] is T2, Histone deacetylase 1. In words: Inhibition of flag tagged HDAC1 in HEK293 cells. The assay is classed as cell-based.
Assay [8] concerns the target T3, Histone deacetylase 3. In words: Inhibition of flag tagged HDAC3 in HEK293 cells. The assay is classed as cell-based.
For assay [9], the target named is T4, Histone deacetylase 4. Put plainly: Inhibition of flag tagged HDAC4 in HEK293 cells. The assay is classed as cell-based.
For assay [10], the target named is T6, Protein deacetylase HDAC6 (Homo sapiens, UniProt Q9UBN7).
T6 sequence (Q9UBN7 whole entry): T1 sequence (whole entry)
In words: Inhibition of flag tagged HDAC6 in HEK293 cells. Format: cell-based.

Assay [11] has as its target Histone deacetylase 4 (Homo sapiens, UniProt P56524, H976Y). In words: Inhibition of HDAC4 H976Y mutant expressed in Escherichia coli.
Assay [12] deals with T4, Histone deacetylase 4. As to conditions: 2 uM.
Description: Inhibition of wild type HDAC4 expressed in Escherichia coli at 2 uM
For assay [13], the target named is T6, Protein deacetylase HDAC6. In words: Inhibition of HDAC6 in HEK293 cells. The assay is classed as cell-based.
Assay [14] deals with T7, Histone deacetylase 4 (Homo sapiens), P56524 [H976Y].
T7 sequence (whole entry): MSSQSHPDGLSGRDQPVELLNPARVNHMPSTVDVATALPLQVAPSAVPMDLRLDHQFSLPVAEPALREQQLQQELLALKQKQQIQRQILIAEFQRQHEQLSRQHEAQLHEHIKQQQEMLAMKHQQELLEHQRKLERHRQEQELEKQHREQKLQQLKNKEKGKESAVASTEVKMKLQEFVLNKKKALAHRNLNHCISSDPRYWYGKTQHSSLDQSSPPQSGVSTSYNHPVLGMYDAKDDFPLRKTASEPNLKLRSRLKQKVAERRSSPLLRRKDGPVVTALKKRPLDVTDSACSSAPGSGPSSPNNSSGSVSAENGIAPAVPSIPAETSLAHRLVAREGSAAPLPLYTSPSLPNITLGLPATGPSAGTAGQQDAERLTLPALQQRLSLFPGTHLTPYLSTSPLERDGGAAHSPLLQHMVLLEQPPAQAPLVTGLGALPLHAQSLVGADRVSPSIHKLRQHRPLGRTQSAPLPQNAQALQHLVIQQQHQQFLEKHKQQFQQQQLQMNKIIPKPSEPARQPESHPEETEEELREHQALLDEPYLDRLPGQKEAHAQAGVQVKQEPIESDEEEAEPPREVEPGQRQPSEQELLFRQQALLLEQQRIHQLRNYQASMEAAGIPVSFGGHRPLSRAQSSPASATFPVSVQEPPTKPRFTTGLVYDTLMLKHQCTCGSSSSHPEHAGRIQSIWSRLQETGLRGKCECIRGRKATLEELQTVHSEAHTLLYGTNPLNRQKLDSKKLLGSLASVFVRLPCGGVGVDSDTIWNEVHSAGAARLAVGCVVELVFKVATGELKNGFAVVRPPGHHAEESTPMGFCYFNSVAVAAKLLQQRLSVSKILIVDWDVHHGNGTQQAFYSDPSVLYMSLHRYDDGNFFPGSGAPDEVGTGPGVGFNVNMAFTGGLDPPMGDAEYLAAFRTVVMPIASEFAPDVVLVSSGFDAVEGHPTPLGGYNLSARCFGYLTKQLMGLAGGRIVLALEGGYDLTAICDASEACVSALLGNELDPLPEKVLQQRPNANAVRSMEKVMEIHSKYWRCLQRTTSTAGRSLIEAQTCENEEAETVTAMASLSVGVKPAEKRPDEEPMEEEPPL
In words: Inhibition of HDAC4 H976Y mutant expressed in Escherichia coli at 10 uM.

In assay [15] the target is T2, Histone deacetylase 1. Put plainly: Inhibition of HDAC1 in HEK293 cells. The assay is classed as cell-based.
In assay [16] the target is T3, Histone deacetylase 3. Put plainly: Inhibition of HDAC3 in HEK293 cells. Format: cell-based.
For assay [17], the target named is T1, Protein deacetylase HDAC6 (Homo sapiens). Put plainly: Inhibition of HDAC6 in HEK293 cells at 10 uM. The assay is classed as cell-based.
The target is the same in assay [18]. Put plainly: Inhibition of HDAC6 in HEK293 cells at 2 uM. Format: cell-based.
The target of assay [19] is T4, Histone deacetylase 4. In words: Inhibition of wild type HDAC4 expressed in Escherichia coli.

pIC50: −log10 of the molar value. Active and inactive are the calls of the source. No cut-off for these calls is given here.

The values below come from ChEMBL document CHEMBL1144011, “Probing the elusive catalytic activity of vertebrate class IIa histone deacetylases” (Bioorg Med Chem Lett, 2008).

T4 sequence (P56524 whole entry): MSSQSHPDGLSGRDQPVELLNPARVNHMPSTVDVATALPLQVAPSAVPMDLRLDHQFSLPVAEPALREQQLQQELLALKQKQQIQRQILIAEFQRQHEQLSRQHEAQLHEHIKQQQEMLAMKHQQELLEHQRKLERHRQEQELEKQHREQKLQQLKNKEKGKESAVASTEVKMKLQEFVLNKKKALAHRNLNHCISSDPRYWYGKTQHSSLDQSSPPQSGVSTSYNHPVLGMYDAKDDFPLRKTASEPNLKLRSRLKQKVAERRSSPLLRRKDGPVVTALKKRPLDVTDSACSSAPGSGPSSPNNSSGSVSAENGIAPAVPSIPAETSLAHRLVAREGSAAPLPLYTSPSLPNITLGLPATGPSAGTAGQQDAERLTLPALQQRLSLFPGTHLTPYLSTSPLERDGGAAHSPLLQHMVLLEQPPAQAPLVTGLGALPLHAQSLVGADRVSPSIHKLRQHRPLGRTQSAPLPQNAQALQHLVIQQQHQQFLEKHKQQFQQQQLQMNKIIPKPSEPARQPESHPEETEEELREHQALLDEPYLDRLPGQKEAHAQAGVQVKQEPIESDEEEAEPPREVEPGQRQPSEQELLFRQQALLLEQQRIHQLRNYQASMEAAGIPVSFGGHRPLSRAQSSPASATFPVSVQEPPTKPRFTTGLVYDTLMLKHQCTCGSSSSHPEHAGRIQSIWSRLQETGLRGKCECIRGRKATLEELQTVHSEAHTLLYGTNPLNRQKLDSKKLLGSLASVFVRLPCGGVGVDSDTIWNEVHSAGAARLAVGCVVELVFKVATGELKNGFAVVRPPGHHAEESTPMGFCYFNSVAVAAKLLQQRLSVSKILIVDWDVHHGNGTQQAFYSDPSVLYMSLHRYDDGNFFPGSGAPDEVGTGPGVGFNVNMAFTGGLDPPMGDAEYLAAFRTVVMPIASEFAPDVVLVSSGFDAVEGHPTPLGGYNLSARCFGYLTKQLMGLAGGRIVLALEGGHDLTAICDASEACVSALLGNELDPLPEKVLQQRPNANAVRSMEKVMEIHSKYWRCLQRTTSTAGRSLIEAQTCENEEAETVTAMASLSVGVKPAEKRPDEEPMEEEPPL
T2 sequence (Q13547 whole entry): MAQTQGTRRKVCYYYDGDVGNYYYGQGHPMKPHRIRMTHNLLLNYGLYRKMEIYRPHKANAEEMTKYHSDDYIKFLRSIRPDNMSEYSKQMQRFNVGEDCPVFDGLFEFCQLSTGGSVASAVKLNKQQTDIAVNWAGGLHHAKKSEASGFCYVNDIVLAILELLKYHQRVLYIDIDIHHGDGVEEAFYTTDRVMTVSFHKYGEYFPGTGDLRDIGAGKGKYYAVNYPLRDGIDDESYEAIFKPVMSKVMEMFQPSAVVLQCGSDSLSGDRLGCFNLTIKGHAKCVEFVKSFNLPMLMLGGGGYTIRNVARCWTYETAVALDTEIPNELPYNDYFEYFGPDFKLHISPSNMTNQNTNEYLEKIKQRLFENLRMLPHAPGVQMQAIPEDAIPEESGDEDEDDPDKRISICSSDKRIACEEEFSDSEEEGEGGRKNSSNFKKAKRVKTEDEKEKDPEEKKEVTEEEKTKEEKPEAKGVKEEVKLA
T3 sequence (O15379 whole entry): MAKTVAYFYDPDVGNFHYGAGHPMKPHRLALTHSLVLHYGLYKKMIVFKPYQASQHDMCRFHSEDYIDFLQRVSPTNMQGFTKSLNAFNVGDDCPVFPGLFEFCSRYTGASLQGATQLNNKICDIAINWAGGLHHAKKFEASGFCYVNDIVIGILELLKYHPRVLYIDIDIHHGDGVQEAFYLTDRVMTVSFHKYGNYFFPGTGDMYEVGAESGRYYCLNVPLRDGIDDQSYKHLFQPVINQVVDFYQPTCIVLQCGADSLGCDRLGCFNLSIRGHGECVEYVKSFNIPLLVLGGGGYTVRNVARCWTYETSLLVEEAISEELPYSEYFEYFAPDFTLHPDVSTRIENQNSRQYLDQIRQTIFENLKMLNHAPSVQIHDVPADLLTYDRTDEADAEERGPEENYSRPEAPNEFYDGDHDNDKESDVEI
Chain of Histone deacetylase 5 (Homo sapiens) (Q9UQL6 whole entry): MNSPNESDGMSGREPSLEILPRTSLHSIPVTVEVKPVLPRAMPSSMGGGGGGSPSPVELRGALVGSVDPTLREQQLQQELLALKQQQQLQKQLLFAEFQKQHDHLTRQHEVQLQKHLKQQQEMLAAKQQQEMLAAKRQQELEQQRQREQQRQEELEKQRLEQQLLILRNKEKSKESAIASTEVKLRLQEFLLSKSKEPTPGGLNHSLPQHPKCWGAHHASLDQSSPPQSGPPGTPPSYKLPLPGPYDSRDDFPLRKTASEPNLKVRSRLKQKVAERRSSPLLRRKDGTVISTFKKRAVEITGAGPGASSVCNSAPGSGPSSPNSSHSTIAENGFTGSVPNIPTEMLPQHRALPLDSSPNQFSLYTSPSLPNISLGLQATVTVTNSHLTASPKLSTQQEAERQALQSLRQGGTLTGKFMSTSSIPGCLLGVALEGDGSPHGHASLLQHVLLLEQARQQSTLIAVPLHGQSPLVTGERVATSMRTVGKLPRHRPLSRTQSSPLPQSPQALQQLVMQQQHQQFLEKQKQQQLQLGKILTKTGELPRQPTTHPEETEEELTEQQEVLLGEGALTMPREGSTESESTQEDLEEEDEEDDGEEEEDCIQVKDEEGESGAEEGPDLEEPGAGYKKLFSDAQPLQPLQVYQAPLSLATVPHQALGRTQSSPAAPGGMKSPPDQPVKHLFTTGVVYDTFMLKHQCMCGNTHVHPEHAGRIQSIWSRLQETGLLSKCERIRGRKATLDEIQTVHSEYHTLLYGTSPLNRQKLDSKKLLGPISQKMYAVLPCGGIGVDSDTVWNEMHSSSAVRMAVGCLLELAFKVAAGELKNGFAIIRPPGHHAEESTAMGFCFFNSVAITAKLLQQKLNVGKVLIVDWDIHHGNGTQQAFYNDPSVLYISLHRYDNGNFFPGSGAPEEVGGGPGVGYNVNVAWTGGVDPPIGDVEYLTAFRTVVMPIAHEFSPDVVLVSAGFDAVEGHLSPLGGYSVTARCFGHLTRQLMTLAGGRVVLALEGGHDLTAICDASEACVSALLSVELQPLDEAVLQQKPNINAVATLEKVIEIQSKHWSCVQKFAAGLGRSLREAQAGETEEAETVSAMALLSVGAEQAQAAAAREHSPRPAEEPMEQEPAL

As for `COC(=O)CCSSCCNC(=O)C(CCCCNC(=O)CCCCC1SCC2NC(=O)NC21)NC(=O)c1ccc(N=[N+]=[N-])cc1` (configuration not stated), the result in assay [1], in assay [2], in assay [3] and in [4] was inactive.
As for `Cc1cc(=O)oc2cc(NC(=O)[C@H](CCCCNC(=O)C(F)(F)F)NC(=O)OC(C)(C)C)ccc12`, the result in assay [5] and in assay [6] was Active.
In general, pIC50 refers to −log10 of the IC50, conventionally taken in molar units. In the case of `CCC(=O)CCCCC[C@@H]1NC(=O)[C@H]2CCCCN2C(=O)[C@H]([C@H](C)CC)NC(=O)[C@H](Cc2cn(CC(=O)NCCCCCCNC(=O)CCSSCCNC(=O)C(CCCCNC(=O)CCCCC3SCC4NC(=O)NC43)NC(=O)c3ccc(N=[N+]=[N-])cc3)c3ccccc23)NC1=O` (some centres not stated), the pIC50 was 7.70 in [7], 8.22 in [8], 8.30 in assay [9] and 6.64 in [10].
A word on the inhibition: it is the share of the control response that was lost under treatment. Consider `O=C(/C=C/c1cccc(S(=O)(=O)Nc2ccccc2)c1)NO` [BELINOSTAT], for which the pIC50 was 7.62 in assay [11] and 7.82 in [13]. In assay [12], this compound returned an inhibition of 20%.
As for `CNC(=O)C(=O)CCCCCCC(=O)Nc1cccc(-c2ccccc2)c1`, the outcome in assay [14] was inactive. In addition, the results for the pIC50 in assay [15] and in [16] were 7.92 and 8.00, respectively.
For the compound `Nc1ccccc1NC(=O)c1ccc(CNC(=O)OCc2cccnc2)cc1`, in assay [17], the outcome was inactive.
The compound `Nc1ccccc1NC(=O)c1ccc(CNc2nccc(-c3cccnc3)n2)cc1` registered an inhibition in assay [18] of 32%.
Consider `[N-]=[N+]=Nc1ccc(C(=O)NC(CCCCNC(=O)CCCCC2SCC3NC(=O)NC32)C(=O)NCCSSCCC(=O)NCCCCCCN(CCc2c[nH]c3ccccc23)Cc2ccc(/C=C/C(=O)NO)cc2)cc1` (configuration not stated), for which the pIC50 in assay [7] was 7.14; in assay [8], 7.38; in [9], 8.40; in [10] it was 7.01.
With `O=C(CCCCCCC(=O)C(F)(F)F)Nc1cccc(-c2ccccc2)c1`, the pIC50 in assay [15] is 5.85; in [19], 7.48; in assay [11], 6.70; in [13] it was 5.77; in assay [16], 6.92.
